# Laboratory results: publication PMC9943626, “CS27109, A Selective Thyroid Hormone Receptor-β Agonist Alleviates Metabolic-Associated Fatty Liver Disease in Murine Models” (International Journal of Endocrinology, 2023)
# Experiments:
# WD + CCL4 model = tested on: WD + CCL4 model; parameters: method as in earlier work; conditions: CCL4 induction started at week 8 (8 weeks in total), drug began 4-week after CCL4 induction; CS27109 alone; ref our another study (manuscript is submitting to another journal); cited from earlier work
# HFD-CHOL hamster model = assay: HFD-CHOL hamster model, serum biochemical test; format: in vivo, golden hamster; conditions: mean ± SD; for HDL-c: model 3.6 ± 1.1, normal 1.6 ± 0.45; for LDL-c: model 17 ± 6.1, normal 1.3 ± 0.54; for TG: model 26 ± 24, normal 2.1 ± 1.1; for TC: model 37 ± 13, normal 3.1 ± 0.72; for ALT: model 278 ± 174, normal 94 ± 58; for AST: model 638 ± 323, normal 98 ± 45
# Procedure: Hamster study: 58 golden hamsters ♂ aged 6–8 weeks were purchased from Beijing Vital River Laboratory Animal Technology Co., Ltd. 10 animals were kept with a diet of food control as normal control, and the other 48 animals were fed 40% fat and 1.25% cholesterol (HFD-CHOL, D12108C, Research diet) as a model group. […] Animals in the normal and model group were given solvent by oral gavage. All drugs, including solvent, were administered consecutively for 4 weeks and once a day. After sacrifice, blood was collected and serum was isolated for the AST, ALT, TG, TC, LDL-c, and HDL-c test.
# [1] = Observation of diarrhea in treated animals; format: in vivo, rodents; conditions: animal studies
# HFD SD rat model = assay: HFD SD rat model, biochemical, organ weight ratio, liver lipid and liver pathology; format: in vivo; conditions: mean ± SD; for Liver TC / Liver TG: HFD SD rat liver; for Liver TC: model 13 ± 2.2, normal 6.0 ± 0.76; for Liver TG: model 102 ± 36, normal 0.75 ± 12; for TG / HDL-c / LDL-c / TC / ALT / AST: HFD SD rat serum; for TG: model 0.82 ± 0.73, normal 0.53 ± 0.34; for HDL-c: model 1.2 ± 0.44, normal 1.1 ± 0.13; for LDL-c: model 9.7 ± 6.1, normal 0.28 ± 0.06; for TC: model 20 ± 13, normal 1.5 ± 0.20; for ALT: model 166 ± 95, normal 32 ± 6.8; for AST: model 365 ± 212, normal 103 ± 21
# Procedure: SD rat study: 58 SD rats ♂ aged 5–6 weeks were purchased from Beijing Huafukang Biotechnology Co., Ltd. 9 animals were kept with a food control diet as normal control, and the other 49 animals were fed 40% fat, 1.25% cholesterol and 0.5% sodium cholate (HFD, D12109C, SYSE BIO, Changzhou, China) as a model group. […] Animals in the normal and model groups were given solvent by oral gavage. All drugs, including solvent, were administered consecutively for 4 weeks and once a day. After sacrifice, blood was collected and serum was isolated for the AST, ALT, TG, TC, LDL-c, and HDL-c test, and livers and hearts were weighed to calculate the liver weight ratio and the heart weight ratio, respectively. The right lobe of the liver of each rat was harvested for the TG and TC test (A110-1-1 and A111-1-1, Nanjing Jiancheng Institute of Bioengineering, Nanjing, China) according to the manufacturer's instructions. The left lobe of the liver was collected for hematoxylin-eosin staining (H and E staining) to quantify liver steatosis, inflammation, and ballooning.
# The liver samples were fixed in 10% formalin and embedded in paraffin using standard methods. The 4 μm paraffin sections were then assessed for liver histology by H and E staining and liver fibrosis by sirius red staining. The stained sections were panoramic scanned with a NanoZoomer Digital Pathology scanner (S210, Hamamatsu, Japan), and then observed with different visual fields at different magnifications, and scored for different liver lobes in the sections. The total NAS score represents the sum of the scores for steatosis (0–3), lobular inflammation (0–3), and ballooning (0–2), and ranges from 0–8 [30]. VIS7.0 software was used to analyze the area of liver fibrosis in the panoramic scanning SR staining sections, and the percentage of liver fibrosis area in the whole section area was calculated.
# [2] = 3 mg/kg (L) oral once a day 4 weeks
# [3] = 10 mg/kg (CS27109-M, MGL-3196) oral once a day 4 weeks
# [4] = 30 mg/kg (H) oral once a day 4 weeks
# [5] = 5 mg/kg (L) oral once a day 4 weeks
# [6] = 15 mg/kg (CS27109-M, MGL-3196) oral once a day 4 weeks
# [7] = 45 mg/kg (H) oral once a day 4 weeks
structure (smiles),measurement,setting,value
N#Cc1nn(-c2cc(Br)c(Oc3n[nH]c(=O)c4ccccc34)c(Br)c2)c(=O)[nH]c1=O [CS27109],liver fibrosis,WD + CCL4 model,sufficient to reverse liver fibrosis
same,HDL-c,HFD-CHOL hamster model; [2],2.6 ± 0.62 mmol/L
same,LDL-c,HFD-CHOL hamster model; [2],13 ± 4.3 mmol/L
same,TG,HFD-CHOL hamster model; [2],32 ± 31 mmol/L
same,TC,HFD-CHOL hamster model; [2],29 ± 8.6 mmol/L
same,ALT,HFD-CHOL hamster model; [2],226 ± 104 U/L
same,AST,HFD-CHOL hamster model; [2],564 ± 317 U/L
same,HDL-c,HFD-CHOL hamster model; [3],3.0 ± 0.52 mmol/L
same,LDL-c,HFD-CHOL hamster model; [3],12 ± 3.8 mmol/L
same,TG,HFD-CHOL hamster model; [3],17 ± 26 mmol/L
same,TC,HFD-CHOL hamster model; [3],25 ± 7.4 mmol/L
same,ALT,HFD-CHOL hamster model; [3],141 ± 133 U/L
same,AST,HFD-CHOL hamster model; [3],582 ± 383 U/L
same,HDL-c,HFD-CHOL hamster model; [4],2.6 ± 0.53 mmol/L
same,LDL-c,HFD-CHOL hamster model; [4],8.7 ± 4.1 mmol/L
same,TG,HFD-CHOL hamster model; [4],11 ± 19 mmol/L
same,TC,HFD-CHOL hamster model; [4],19 ± 7.9 mmol/L
same,AST,HFD-CHOL hamster model; [4],416 ± 158 U/L
same,diarrhea in treated animals,[1],rarely observed
same,Liver TC,HFD SD rat model; [5],11 ± 1.1 µmol/g
same,Liver TG,HFD SD rat model; [5],71 ± 28 µmol/g
same,Liver TC,HFD SD rat model; [6],10 ± 0.74 µmol/g
same,Liver TG,HFD SD rat model; [6],54 ± 24 µmol/g
same,Liver TC,HFD SD rat model; [7],10 ± 2.2 µmol/g
same,Liver TG,HFD SD rat model; [7],69 ± 21 µmol/g
same,TG,HFD SD rat model; [5],0.19 ± 0.08 mmol/L
same,HDL-c,HFD SD rat model; [5],0.78 ± 0.18 mmol/L
same,LDL-c,HFD SD rat model; [5],1.6 ± 0.74 mmol/L
same,TC,HFD SD rat model; [5],4.4 ± 1.8 mmol/L
same,ALT,HFD SD rat model; [5],85 ± 34 U/L
same,AST,HFD SD rat model; [5],213 ± 78 U/L
same,TG,HFD SD rat model; [6],0.22 ± 0.06 mmol/L
same,HDL-c,HFD SD rat model; [6],0.98 ± 0.32 mmol/L
same,LDL-c,HFD SD rat model; [6],0.84 ± 0.44 mmol/L
same,TC,HFD SD rat model; [6],2.9 ± 0.98 mmol/L
same,ALT,HFD SD rat model; [6],68 ± 24 U/L
same,AST,HFD SD rat model; [6],218 ± 82 U/L
same,TG,HFD SD rat model; [7],0.20 ± 0.08 mmol/L
same,HDL-c,HFD SD rat model; [7],1.0 ± 0.30 mmol/L
same,LDL-c,HFD SD rat model; [7],0.59 ± 0.32 mmol/L
same,TC,HFD SD rat model; [7],2.3 ± 0.65 mmol/L
same,ALT,HFD SD rat model; [7],89 ± 50 U/L
same,AST,HFD SD rat model; [7],253 ± 131 U/L
